Experiments:
Format in all cases: functional
SNB-75 [1] = test: Cytotoxicity against Homo sapiens (human) SNB75 cells after 48 hr by SRB assay; details: SNB-75, 48 h
UACC-62 = test: Cytotoxicity against Homo sapiens (human) UACC62 cells after 48 hr by SRB assay; details: UACC-62, 48 h
SF-539 = test: Cytotoxicity against Homo sapiens (human) SF539 cells after 48 hr by SRB assay; details: SF-539, 48 h
SF-268 = test: Cytotoxicity against Homo sapiens (human) SF268 cells after 48 hr by SRB assay; details: SF-268, 48 h
HCC 2998 [2] = test: Cytotoxicity against Homo sapiens (human) HCC2998 cells after 48 hr by SRB assay; details: HCC 2998, 48 h
HOP-92 [3] = test: Cytotoxicity against Homo sapiens (human) HOP92 cells after 48 hr by SRB assay; details: HOP-92, 48 h
EKVX [4] = test: Cytotoxicity against Homo sapiens (human) EKVX cells after 48 hr by SRB assay
HOP-62 [5] = test: Cytotoxicity against Homo sapiens (human) HOP62 cells after 48 hr by SRB assay; details: HOP-62, 48 h
SR = test: Cytotoxicity against Homo sapiens (human) SR cells after 48 hr by SRB assay
RPMI-8226 [6] = test: Cytotoxicity against Homo sapiens (human) RPMI8226 cells after 48 hr by SRB assay; details: Homo sapiens, RPMI-8226, 48 h
CCRF-CEM [7] = test: Cytotoxicity against Homo sapiens (human) CCRF-CEM cells after 48 hr by SRB assay
HL-60(TB) [8] = test: Cytotoxicity against Homo sapiens (human) HL-60(TB) cells after 48 hr by SRB assay; details: HL-60, 48 h
U-251 = test: Growth inhibition of Homo sapiens (human) U251 cells at 10 uM after 48 hr by SRB assay; details: U-251, 48 h, read-out: GI
SNB-75 [9] = test: Growth inhibition of Homo sapiens (human) SNB75 cells at 10 uM after 48 hr by SRB assay; details: SNB-75, 48 h, read-out: GI
SK-MEL-5 = test: Growth inhibition of Homo sapiens (human) SK-MEL-5 cells at 10 uM after 48 hr by SRB assay; details: SK-MEL-5, 48 h, read-out: GI
SF-295 = test: Growth inhibition of Homo sapiens (human) SF295 cells at 10 uM after 48 hr by SRB assay; details: SF-295, 48 h, read-out: GI
M14 = test: Growth inhibition of Homo sapiens (human) M14 cells at 10 uM after 48 hr by SRB assay; details: M14, 48 h, read-out: GI
LOX IMVI = test: Growth inhibition of Homo sapiens (human) LOXIMVI cells at 10 uM after 48 hr by SRB assay; details: read-out: GI
CAKI-1 = test: Growth inhibition of Homo sapiens (human) CAKI-1 cells at 10 uM after 48 hr by SRB assay; details: CAKI-1, 48 h, read-out: GI
RPMI-8226 [10] = test: Growth inhibition of Homo sapiens (human) RPMI8226 cells at 10 uM after 48 hr by SRB assay; details: RPMI-8226, 48 h, read-out: GI
786-0 = test: Growth inhibition of Homo sapiens (human) 786-0 cells at 10 uM after 48 hr by SRB assay; details: 786-0, 48 h, read-out: GI
MDA-MB-435 = test: Growth inhibition of Homo sapiens (human) MDA-MB-435 cells at 10 uM after 48 hr by SRB assay; details: MDA-MB-435, 48 h, read-out: GI
HCC 2998 [11] = test: Growth inhibition of Homo sapiens (human) HCC2998 cells at 10 uM after 48 hr by SRB assay; details: HCC 2998, 48 h, read-out: GI
COLO 205 = test: Growth inhibition of Homo sapiens (human) COLO205 cells at 10 uM after 48 hr by SRB assay; details: COLO 205, 48 h, read-out: GI
NCI-H460 = test: Growth inhibition of Homo sapiens (human) NCI-H460 cells at 10 uM after 48 hr by SRB assay; details: NCI-H460, 48 h, read-out: GI
HOP-62 [12] = test: Growth inhibition of Homo sapiens (human) HOP62 cells at 10 uM after 48 hr by SRB assay; details: HOP-62, 48 h, read-out: GI
A498 [13] = test: Growth inhibition of Homo sapiens (human) A498 cells at 10 uM after 48 hr by SRB assay; details: A498, 48 h, read-out: GI
EKVX [14] = test: Growth inhibition of Homo sapiens (human) EKVX cells at 10 uM after 48 hr by SRB assay; details: read-out: GI
HL-60(TB) [15] = test: Growth inhibition of Homo sapiens (human) HL-60(TB) cells at 10 uM after 48 hr by SRB assay; details: HL-60, 48 h, read-out: GI
CCRF-CEM [16] = test: Growth inhibition of Homo sapiens (human) CCRF-CEM cells at 10 uM after 48 hr by SRB assay; details: read-out: GI
K562 = test: Growth inhibition of Homo sapiens (human) K562 cells at 10 uM after 48 hr by SRB assay; details: K562, 48 h, read-out: GI
HOP-92 [17] = test: Growth inhibition of Homo sapiens (human) HOP92 cells at 10 uM after 48 hr by SRB assay; details: HOP-92, 48 h, read-out: GI
T47D = test: Cytotoxicity against Homo sapiens (human) T47D cells after 48 hr by SRB assay
A549 = test: Growth inhibition of Homo sapiens (human) A549 cells at 10 uM after 48 hr by SRB assay; details: A549, 48 h, read-out: GI
BT-549 = test: Cytotoxicity against Homo sapiens (human) BT549 cells after 48 hr by SRB assay; details: BT-549, 48 h
MDA-MB-231 = test: Cytotoxicity against Homo sapiens (human) MDA-MB-231 cells after 48 hr by SRB assay; details: MDA-MB-231, 48 h
UO-31 = test: Cytotoxicity against Homo sapiens (human) UO31 cells after 48 hr by SRB assay; details: UO-31, 48 h
OVCAR-4 = test: Cytotoxicity against Homo sapiens (human) OVCAR4 cells after 48 hr by SRB assay; details: OVCAR-4, 48 h
A498 [18] = test: Cytotoxicity against Homo sapiens (human) A498 cells after 48 hr by SRB assay; details: A498, 48 h
OVCAR-3 = test: Cytotoxicity against Homo sapiens (human) OVCAR3 cells after 48 hr by SRB assay; details: OVCAR-3, 48 h
IGROV-1 = test: Cytotoxicity against Homo sapiens (human) IGROV1 cells after 48 hr by SRB assay; details: IGROV-1, 48 h

Cn1cccc1-c1cc(-c2ccc(Br)cc2)n(C(=S)Nc2ccc(F)cc2)c(=O)c1C#N
GI50 (SNB-75 [1]): 38 µM
GI50 (UACC-62): 72.4 µM
GI50 (SF-539): > 100 µM
GI50 (SF-268): 20.4 µM
GI50 (HCC 2998 [2]): > 100 µM
GI50 (HOP-92 [3]): > 100 µM
GI50 (EKVX [4]): 0.01 µM
TGI (EKVX [4]): 0.03 µM
GI50 (HOP-62 [5]): 37.1 µM
GI50 (SR): > 100 µM
GI50 (RPMI-8226 [6]): > 100 µM
GI50 (CCRF-CEM [7]): > 100 µM
GI50 (HL-60(TB) [8]): 14.5 µM
inhibition of growth at 10 µM (U-251): 26.3%
inhibition of growth at 10 µM (SNB-75 [9]): 42.7%
inhibition of growth at 10 µM (SK-MEL-5): 33.5%
inhibition of growth at 10 µM (SF-295): 40.2%
inhibition of growth at 10 µM (M14): 29.1%
inhibition of growth at 10 µM (LOX IMVI): 23%
inhibition of growth at 10 µM (CAKI-1): 30.3%
inhibition of growth at 10 µM (RPMI-8226 [10]): 59.2%
inhibition of growth at 10 µM (786-0): 28.8%
inhibition of growth at 10 µM (MDA-MB-435): 35.1%
inhibition of growth at 10 µM (HCC 2998 [11]): 27.6%
inhibition of growth at 10 µM (COLO 205): 45.6%
inhibition of growth at 10 µM (NCI-H460): 31.6%
inhibition of growth at 10 µM (HOP-62 [12]): 34.5%
inhibition of growth at 10 µM (A498 [13]): 27.6%
inhibition of growth at 10 µM (EKVX [14]): 29.7%
inhibition of growth at 10 µM (HL-60(TB) [15]): 82.3%
inhibition of growth at 10 µM (CCRF-CEM [16]): 48.3%
inhibition of growth at 10 µM (K562): 60%
inhibition of growth at 10 µM (HOP-92 [17]): 39.6%
GI50 (T47D): > 100 µM
inhibition of growth at 10 µM (A549): 47.8%
GI50 (BT-549): > 100 µM
GI50 (MDA-MB-231): > 100 µM
GI50 (UO-31): 13.8 µM
LC50 (UO-31): 54.9 µM
TGI (UO-31): 27.5 µM
GI50 (OVCAR-4): > 100 µM
GI50 (A498 [18]): 17.8 µM
GI50 (OVCAR-3): > 100 µM
GI50 (IGROV-1): 22.9 µM
